Measured values as given in publication PMC6310865 (Proceedings of the National Academy of Sciences of the …, 2018).

System: CD4+ T cells
Type: cell-based, human
Conditions: all cases versus controls; […]

Row | Substance | Tetramer-positive CD4+ T cells in T1N cases versus DQ0602 controls
1 | NP17–31: nucleoprotein epitope, PR8 specific (GERQNATEIRASVGK) | significant overabundance
2 | NP261–275: nucleoprotein epitope shared between A/California/07/2009 and PR8 (RSALILRGSVAHKSC; UniProt P03466 261-275, looked up, fragment) | little to no significant differences
